Experiments:
Type in all cases: cell-based
[1] = system: YAP/TAZ-TEAD transcription; test: Reporter gene assay for measuring the inhibition of YAP/TAZ-TEAD transcription (TEAD-responsive element luciferase reporter in Hek293T cells); details: Homo sapiens, HEK-293T, 24 hours incubation
How it was run: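 Percent inhibition, scaled between vehicle (0%) and a positive control inhibitor (100%), came from SteadyLite luciferase signal after 24 h compound exposure at 37 °C/5% CO2. Cells: Hek293T transiently carrying a TEAD-responsive luciferase reporter; EC50 derived.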

[2] = system: NCI-H226; test: Mesothelioma cell line proliferation assay (ATPlite), NCI-H226; details: Homo sapiens, 144 h; NCI-H226 cells, 6 days, ATPlite cell viability
Procedure: (§1) Mesothelioma cell lines, NCI-H226 and NCI-H2052 (all sourced from the ATCC cell culture collection) are plated in 96-well plates (Corning® 96 Well White Polystyrene Microplate clear flat bottom, white polystyrene (TC-Treated)), at 1500 cells/well in full medium (RPMI 1640 ATCC modification with L-glutamine, HEPES, Phenol Red, Sodium Pyruvate, High glucose, Low sodium bicarbonate and 10% fetal bovine serum). Cells are incubated overnight at 37° C. in an incubator with 5% CO2. Then compounds, dissolved in DMSO, are added in dose-response. Cells are incubated with compound dilutions for another 6 days at 37° C. in an incubator with 5% CO2. Cell viability is quantitated using the ATPlite kit (Perkin-Elmer) and the luminescence is read-out using an Envision instrument (Perkin-Elmer). The amount of relative light units produced using the ATPlite kit is used to calculated percent of inhibition.
(§2) The activities of example compounds tested are depicted in the table below. The activity ranges A, B and C refer to EC50 values in the mesothelioma cell line proliferation assay as described as follows: “A”: EC50<1 μM; “B”: 1 μM s EC50≤10 μM and “C”: EC50>10 μM. NT: not tested.

[3] = system: NCI-H2052; test: Mesothelioma cell line proliferation assay (ATPlite), NCI-H2052; details: Homo sapiens, NCI-H2052, 144 h, NCI-H2052 cells, 6 days, ATPlite cell viability
Procedure: as §1, §2

Row | EC50 [1] | EC50 [2] | EC50 [3] | Compound
1 | 1000 to 20000 nM | > 10000 nM | > 10000 nM | CNS(=O)(=O)CCNc1cc(-c2ccccc2)cc(-c2ccn(Cc3cccnc3)n2)c1 [compound 052, N-methyl-2-((5-(1-(pyridin-3-ylmethyl)-1H-pyrazol-3-yl)-[1,1′-biphenyl]-3-yl)amino)ethane-1-sulfonamide]
2 | < 1000 nM | < 1000 nM | 1000 to 10000 nM | C=CC(=O)Nc1cc(-c2ccccc2)cc(-c2ccn(Cc3cccnc3)n2)c1 [compound 083, N-(5-(1-(pyridin-3-ylmethyl)-1H-pyrazol-3-yl)-[1,1′-biphenyl]-3-yl)acrylamide]
3 | < 1000 nM | 1000 to 10000 nM | > 10000 nM | CNS(=O)(=O)CCNc1cnc(-c2ccc(F)cc2)cc1-c1ccn(C(F)F)n1 [compound 131, 2-((4-(1-(difluoromethyl)-1H-pyrazol-3-yl)-6-(4-fluorophenyl)pyridin-3-yl)amino)-N-methylethane-1-sulfonamide]
4 | < 1000 nM | > 10000 nM | > 10000 nM | CNS(=O)(=O)CCNc1ccc(-c2ccc(F)cc2)nc1-c1ccn(C(F)F)n1 [compound 132, 2-((2-(1-(difluoromethyl)-1H-pyrazol-3-yl)-6-(4-fluorophenyl)pyridin-3-yl)amino)-N-methylethane-1-sulfonamide]
5 | < 1000 nM | < 1000 nM | > 10000 nM | C=CC(=O)NCc1cc(-c2ccccc2)cc(-c2ccn(C)n2)c1 [compound 137, N-((5-(1-methyl-1H-pyrazol-3-yl)-[1,1′-biphenyl]-3-yl)methyl)acrylamide]
6 | < 1000 nM | < 1000 nM | < 1000 nM | C=CC(=O)NCc1ccc(-c2ccc(C(F)(F)F)cc2)cc1-c1ccn(C)n1 [compound 140, N-((3-(1-methyl-1H-pyrazol-3-yl)-4′-(trifluoromethyl)-[1,1′-biphenyl]-4-yl)methyl)acrylamide]
7 | < 1000 nM | < 1000 nM | < 1000 nM | C=CC(=O)NCc1ccc(-c2cccc(C(F)(F)F)c2)cc1-c1ccn(C)n1 [compound 141, N-((3-(1-methyl-1H-pyrazol-3-yl)-3′-(trifluoromethyl)-[1,1′-biphenyl]-4-yl)methyl)acrylamide]
8 | < 1000 nM | < 1000 nM | < 1000 nM | C=CC(=O)NCc1ccc(-c2cccc(F)c2)cc1-c1ccn(C)n1 [compound 142, N-((3′-fluoro-3-(1-methyl-1H-pyrazol-3-yl)-[1,1′-biphenyl]-4-yl)methyl)acrylamide]
9 | < 1000 nM | < 1000 nM | < 1000 nM | C=CC(=O)NCc1ccc(-c2ccc(F)cc2)cc1-c1ccn(C)n1 [compound 143, N-((4′-fluoro-3-(1-methyl-1H-pyrazol-3-yl)-[1,1′-biphenyl]-4-yl)methyl)acrylamide]
10 | < 1000 nM | < 1000 nM | < 1000 nM | C=CC(=O)NCc1ccc(-c2ccc(F)c(F)c2)cc1-c1ccn(C)n1 [compound 144, N-((3′,4′-difluoro-3-(1-methyl-1H-pyrazol-3-yl)-[1,1′-biphenyl]-4-yl)methyl)acrylamide]
11 | < 1000 nM | < 1000 nM | < 1000 nM | C=CC(=O)NCc1ccc(-c2ccc(F)cc2F)cc1-c1ccn(C)n1 [compound 145, N-((2′,4′-difluoro-3-(1-methyl-1H-pyrazol-3-yl)-[1,1′-biphenyl]-4-yl)methyl)acrylamide]
12 | < 1000 nM | < 1000 nM | < 1000 nM | C=CC(=O)NCc1ccc(-c2ccc(F)cc2)cc1-c1ccn(CCOC)n1 [compound 149, N-((4′-fluoro-3-(1-(2-methoxyethyl)-1H-pyrazol-3-yl)-[1,1′-biphenyl]-4-yl)methyl)acrylamide]
13 | < 1000 nM | < 1000 nM | < 1000 nM | C=CC(=O)NCc1ccc(-c2ccc(F)cc2)cc1-c1ccn(CC2CC2)n1 [compound 153, N-((3-(1-(cyclopropylmethyl)-1H-pyrazol-3-yl)-4′-fluoro-[1,1′-biphenyl]-4-yl)methyl)acrylamide]
14 | < 1000 nM | < 1000 nM | < 1000 nM | C=CC(=O)NCc1ccc(-c2ccc(Cl)cc2)cc1-c1ccn(C)n1 [compound 157, N-((4′-chloro-3-(1-methyl-1H-pyrazol-3-yl)-[1,1′-biphenyl]-4-yl)methyl)acrylamide]
15 | < 1000 nM | < 1000 nM | < 1000 nM | C=CC(=O)NCc1ccc(-c2ccc(F)cc2)cc1-c1cc[nH]n1 [compound 161, N-((4′-fluoro-3-(1H-pyrazol-3-yl)-[1,1′-biphenyl]-4-yl)methyl)acrylamide]
16 | < 1000 nM | < 1000 nM | < 1000 nM | C=CC(=O)NCc1ccc(-c2ccc(F)cc2)cc1-c1cnn(C)c1 [compound 162, N-((4′-fluoro-3-(1-methyl-1H-pyrazol-4-yl)-[1,1′-biphenyl]-4-yl)methyl)acrylamide]
17 | < 1000 nM | < 1000 nM | < 1000 nM | C=CC(=O)NCc1ccc(-c2ccc(F)cc2)cc1-c1ccccn1 [compound 165, N-((4′-fluoro-3-(pyridin-2-yl)-[1,1′-biphenyl]-4-yl)methyl)acrylamide]
18 | < 1000 nM | < 1000 nM | < 1000 nM | C=CC(=O)NCc1ccc(-c2ccc(F)cc2)cc1-c1ccn(C2CC2)n1 [compound 166, N-((3-(1-cyclopropyl-1H-pyrazol-3-yl)-4′-fluoro-[1,1′-biphenyl]-4-yl)methyl)acrylamide]
19 | < 1000 nM | 1000 to 10000 nM | < 1000 nM | C=CC(=O)NCc1ccc(-c2ccc(C(F)(F)F)cc2)cc1-c1ccn(C2CC2)n1 [compound 167, N-((3-(1-cyclopropyl-1H-pyrazol-3-yl)-4′-(trifluoromethyl)-[1,1′-biphenyl]-4-yl)methyl)acrylamide]
20 | < 1000 nM | < 1000 nM | 1000 to 10000 nM | C=CC(=O)NCc1cc(-c2ccc(F)cc2)cc(-c2ccn(C3CC3)n2)c1 [compound 169, N-((5-(1-cyclopropyl-1H-pyrazol-3-yl)-4′-fluoro[1,1′-biphenyl]-3-yl)methyl)acrylamide]
21 | < 1000 nM | < 1000 nM | < 1000 nM | C=CC(=O)NCc1ccc(-c2ccc(F)cc2)cc1-c1ccn(C(F)F)n1 [compound 170, N-((3-(1-(difluoromethyl)-1H-pyrazol-3-yl)-4′-fluoro-[1,1′-biphenyl]-4-yl)methyl)acrylamide]
22 | < 1000 nM | < 1000 nM | < 1000 nM | C=CC(=O)NCc1ccc(-c2ccc(C(F)(F)F)cc2)cc1-c1ccn(C(F)F)n1 [compound 172, N-((3-(1-(difluoromethyl)-1H-pyrazol-3-yl)-4′-(trifluoromethyl)-[1,1′-biphenyl]-4-yl)methyl)acrylamide]
23 | < 1000 nM | < 1000 nM | 1000 to 10000 nM | C=CC(=O)NCc1cc(-c2ccc(F)cc2)cc(-c2ccn(C(F)F)n2)c1 [compound 174, N-((5-(1-(difluoromethyl)-1H-pyrazol-3-yl)-4′-fluoro-[1,1′-biphenyl]-3-yl)methyl)acrylamide]
24 | < 1000 nM | < 1000 nM | < 1000 nM | C=CC(=O)NCc1ccc(-c2ccc(F)cc2)cc1-c1cc(C)n(C)n1 [compound 176, N-((3-(1,5-dimethyl-1H-pyrazol-3-yl)-4′-fluoro-[1,1′-biphenyl]-4-yl)methyl)acrylamide]
25 | < 1000 nM | < 1000 nM | < 1000 nM | C=C(F)C(=O)NCc1ccc(-c2ccc(C(F)(F)F)cc2)cc1-c1ccn(C)n1 [compound 177, 2-fluoro-N-((3-(1-methyl-1H-pyrazol-3-yl)-4′-(trifluoromethyl)-[1,1′-biphenyl]-4-yl)methyl)acrylamide]
26 | < 1000 nM | < 1000 nM | < 1000 nM | C=CC(=O)NCc1ccc([C@H]2CC[C@@H](C(F)(F)F)CC2)cc1-c1ccn(C)n1 [compound 179, cis-N-(2-(1-methyl-1H-pyrazol-3-yl)-4-(4-(trifluoromethyl)cyclohexyl)benzyl)acrylamide]
27 | < 1000 nM | < 1000 nM | < 1000 nM | C=CC(=O)NCc1ccc(C2CCC(F)(F)CC2)cc1-c1ccn(C)n1 [compound 180, N-(4-(4,4-difluorocyclohexyl)-2-(1-methyl-1H-pyrazol-3-yl)benzyl)acrylamide]
28 | < 1000 nM | < 1000 nM | < 1000 nM | C=CC(=O)NCc1ccc(N2CCC(F)(F)CC2)cc1-c1ccn(C)n1 [compound 182, N-(4-(4,4-difluoropiperidin-1-yl)-2-(1-methyl-1H-pyrazol-3-yl)benzyl)acrylamide]
29 | < 1000 nM | < 1000 nM | < 1000 nM | C=CC(=O)NCc1ccc(-c2ccc(F)cc2)cc1-c1cn(C)nn1 [compound 184, N-((4′-fluoro-3-(1-methyl-1H-1,2,3-triazol-4-yl)-[1,1′-biphenyl]-4-yl)methyl)acrylamide]

Source: US12552772B2, “2-pyrazole anilines and related analogs for inhibiting YAP/TAZ-TEAD” (KATHOLIEKE UNIVERSITEIT LEUVEN, priority 2021, dated 2026)
